Source: ChEMBL document CHEMBL1145958, “Furoyl and benzofuroyl pyrroloquinolones as potent and selective PDE5 inhibitors for treatment of erectile dysfunction” (J Med Chem, 2003)
pKi: −log10 of the molar value.

What was measured:
[1] = target: T1, cGMP-specific 3',5'-cyclic phosphodiesterase (Homo sapiens, UniProt O76074); assay: Inhibitory activity against Phosphodiesterase 5 (PDE5) was evaluated
[2] = Selective inhibition of PDE5 versus PDE6 in retinal cone
[3] = Selective inhibition of PDE5 versus PDE6 in retinal rod
Canis familiaris [4] = organism: Canis familiaris; assay: Effective dose in dogs; format: functional; conditions: Canis lupus familiaris
Canis familiaris [5] = organism: Canis familiaris; assay: Dose required for potentiated ICP increase in dogs; format: functional, Canis lupus familiaris
[6] = target: T1, cGMP-specific 3',5'-cyclic phosphodiesterase; assay: Inhibition of PDE5

Row | Structure (SMILES) | pKi [1] | other results
1 | O=C(c1ccc(-c2ccc(O)cc2)o1)N1Cc2c(nc3ccccc3c2O)C1c1ccc2c(c1)OCO2 (stereo not drawn) | 9.14 | 
2 | O=C(c1ccc(Br)o1)N1Cc2c(nc3ccccc3c2O)C1c1ccc2c(c1)OCO2 (stereo not drawn) | 8.68 | 
3 | O=C(c1ccc(-c2cccc([N+](=O)[O-])c2)o1)N1Cc2c(nc3ccccc3c2O)C1c1ccc2c(c1)OCO2 (stereo not drawn) | 8.89 | 
4 | O=C(c1ccc(-c2cccnc2)o1)N1Cc2c(nc3ccccc3c2O)C1c1ccc2c(c1)OCO2 (stereo not drawn) | 9.82 | Ratio [2]: 108; Ratio [3]: 144
5 | O=C(c1cc2ccc(O)cc2o1)N1Cc2c(nc3ccccc3c2O)C1c1ccc2c(c1)CCO2 (stereo not drawn) | 8.76 | Ratio [2]: 646; Ratio [3]: 291
6 | O=C(c1ccc(-c2cccc(C(F)(F)F)c2)o1)N1Cc2c(nc3ccccc3c2O)C1c1ccc2c(c1)OCO2 (stereo not drawn) | 9.01 | 
7 | O=C(c1ccc(-c2ccccc2)o1)N1Cc2c(nc3ccccc3c2O)C1c1ccc2c(c1)OCO2 (stereo not drawn) | 8.68 | 
8 | CN1CCN(C(=O)c2ccc(-c3ccc(C(=O)N4Cc5c(nc6ccccc6c5O)C4c4ccc5c(c4)OCO5)o3)cc2)CC1 (racemic) [listing 1 of 2 here] | 8.74 | 
9 | O=C(O)c1ccc(-c2ccc(C(=O)N3Cc4c(nc5ccccc5c4O)C3c3ccc4c(c3)OCO4)o2)cc1 (stereo not drawn) | 9.00 | 
10 | N#Cc1ccc(-c2ccc(C(=O)N3Cc4c(nc5ccccc5c4O)C3c3ccc4c(c3)OCO4)o2)cc1 (stereo not drawn) | 8.57 | 
11 | O=C(c1ccc(-c2ccco2)o1)N1Cc2c(nc3ccccc3c2O)C1c1ccc2c(c1)OCO2 (stereo not drawn) | 8.33 | 
12 | COC(=O)c1ccc(-c2ccc(C(=O)N3Cc4c(nc5ccccc5c4O)C3c3ccc4c(c3)OCO4)o2)cc1 (stereo not drawn) | 9.00 | 
13 | CS(=O)(=O)Nc1ccc(-c2ccc(C(=O)N3Cc4c(nc5ccccc5c4O)C3c3ccc4c(c3)OCO4)o2)cc1 (stereo not drawn) | 9.62 | ED50 (Canis familiaris [4]): 0.284 mg/kg; Dose (Canis familiaris [5]): 0.3 mg/kg
14 | O=C(c1ccc(-c2ccc(CO)cc2)o1)N1Cc2c(nc3ccccc3c2O)C1c1ccc2c(c1)OCO2 (stereo not drawn) | 9.21 | 
15 | COc1ccc(-c2ccc(C(=O)N3Cc4c(nc5ccccc5c4O)C3c3ccc4c(c3)OCO4)o2)cc1 (stereo not drawn) | 8.77 | 
16 | O=C(c1ccc(-c2cccc(CO)c2)o1)N1Cc2c(nc3ccccc3c2O)C1c1ccc2c(c1)OCO2 (stereo not drawn) | 9.33 | 
17 | O=Cc1ccc(-c2ccc(C(=O)N3Cc4c(nc5ccccc5c4O)C3c3ccc4c(c3)OCO4)o2)cc1 (stereo not drawn) |  | pKi [6]: 8.59
18 | CN1CCN(C(=O)c2ccc(-c3ccc(C(=O)N4Cc5c(nc6ccccc6c5O)C4c4ccc5c(c4)OCO5)o3)cc2)CC1 (single isomer, unassigned; (-)) [listing 1 of 2 here] | 9.70 | 
19 | CN1CCN(C(=O)c2ccc(-c3ccc(C(=O)N4Cc5c(nc6ccccc6c5O)C4c4ccc5c(c4)OCO5)o3)cc2)CC1 (racemic) [listing 2 of 2 here] |  | Ratio [2]: 2; Ratio [3]: 2
20 | CN1CCN(C(=O)c2ccc(-c3ccc(C(=O)N4Cc5c(nc6ccccc6c5O)C4c4ccc5c(c4)OCO5)o3)cc2)CC1 (single isomer, unassigned; (-)) [listing 2 of 2 here] |  | Ratio [2]: 13.2; Ratio [3]: 13
21 | CN1CCN(C(=O)c2ccc(-c3ccc(C(=O)N4Cc5c(nc6ccccc6c5O)C4c4ccc5c(c4)CCO5)o3)cc2)CC1 (stereo not drawn) |  | Ratio [2]: 12; Ratio [3]: 13

The remaining compounds from weak to strong by pKi [1], led by results:

Row | pKi [1] | Structure (SMILES) | other results
22 | 8.43 | CN(C)c1ccc(-c2ccc(C(=O)N3Cc4c(nc5ccccc5c4O)C3c3ccc4c(c3)OCO4)o2)cc1 (stereo not drawn) | 
23 | 8.58 | Cc1ccc(-c2ccc(C(=O)N3Cc4c(nc5ccccc5c4O)C3c3ccc4c(c3)OCO4)o2)cc1 (stereo not drawn) | 
24 | 8.60 | O=C(c1ccccc1)N1Cc2c(nc3ccccc3c2O)C1c1ccc2c(c1)OCO2 (stereo not drawn) | 
25 | 9.12 | O=C(c1ccc(-c2ccc(OCCN3CCCC3)cc2)o1)N1Cc2c(nc3ccccc3c2O)C1c1ccc2c(c1)OCO2 (stereo not drawn) | 
26 | 9.15 | O=C(c1ccc(-c2ccsc2)o1)N1Cc2c(nc3ccccc3c2O)C1c1ccc2c(c1)OCO2 (stereo not drawn) | 
27 | 9.21 | O=C(c1ccc(-c2ccc([N+](=O)[O-])cc2)o1)N1Cc2c(nc3ccccc3c2O)C1c1ccc2c(c1)OCO2 (stereo not drawn) | 
28 | 9.28 | O=C(c1ccc(-c2cccnc2)o1)N1Cc2c(nc3ccccc3c2O)C1c1ccc2c(c1)CCO2 (stereo not drawn) | 
29 | 9.46 | O=C(c1cc2ccc(O)cc2o1)N1Cc2c(nc3ccccc3c2O)C1c1ccc2c(c1)OCO2 (stereo not drawn) | Ratio [2]: 29; Ratio [3]: 31
30 | 9.51 | O=C(c1ccc(-c2ccncc2)o1)N1Cc2c(nc3ccccc3c2O)C1c1ccc2c(c1)OCO2 (stereo not drawn) | Ratio [2]: 34; Ratio [3]: 23
